The subject of test [1] is CREB phosphorylation in hippocampal pyramidal neurons. Nature of the test: CREB phosphorylation. As to conditions: for concentrations inducing pCREB signal statistically different from vehicle: CRF F5,184 = 36.59, P < 0.001, UCN F5,175 = 23.00, P < 0.001; for τ of pCREB increase (time course): CRF df = 128, R^2 = 0.58, UCN df = 193, R^2 = 0.3, nonlinear curve fit. In kind it is cell-based, rat (Sprague-Dawley, 1- to 2-d-old pups).

For test [2], the system named is CREB phosphorylation in hippocampal neurons. The following applies: 10 μM H89, hippocampal neurons; ref Bayatti et al., 2003; cited from earlier work.
In test [3] the test system is cAMP in hippocampal pyramidal neurons. Put plainly: cAMP assay. In kind it is cell-based, rat (Sprague-Dawley, 1- to 2-d-old pups). The following applies: ISO 10 μM, 15 min, with IBMX 75 μM; positive control; P < 0.001 vs. '0 min'.
Another test concerns CRFR1α. The following applies: stably transfected cell lines; ref Grammatopoulos et al., 2000; cited from earlier work.
Test [4] has as its target CRFR1. As to conditions: read-out: Ki for CRFR1, ref Perrin et al., 1993; cited from earlier work.
The subject of another test is hippocampal neurons. As to conditions: 2002, cited from earlier work.
Test [5] concerns MAPK signaling in human myocytes. As to conditions: UCN, but not CRF, ref Grammatopoulos et al., 2000; cited from earlier work.
Test [6] has as its system CRFR1. As to conditions: modified yeast cell screen; ref Ladds et al., 2003; cited from earlier work.

pKi: −log10 of the molar value. Entries after “also recorded” stand apart in the source; their conditions may differ. Where two headings read alike, the source gives them in different places. The star is where a group is joined. Myristoyl = CCCCCCCCCCCCCC(=O)*

The values below come from PMC3168589 (The European journal of neuroscience, 2011).

In the case of `CCCCN(CC)c1nc(C)nc2c1c(C)cn2-c1c(C)cc(C)cc1C` [CP154526], the “effect on STR-induced CREB phosphorylation” value in test [1] (CP154526 (100 nM) with STR 70 nM, F3,117 = 55.29, P < 0.001) is listed as “blocked”.
Regarding `O=S(=O)(NCCNC/C=C/c1ccc(Br)cc1)c1cccc2cnccc12` [H89], in test [2], the “involvement of PKA in CRF-induced CREB phosphorylation” value is given as “implicated PKA in CRF-induced CREB phosphorylation”. In addition, the “effect on CRF-induced CREB phosphorylation” value in test [1] (H89 2 μM, CRF 40 nM, F3,105 = 44.94, P > 0.05) is on record as “did not block; also recorded: failed to block”. Also, in test [1] (H89 2 μM, UCN 40 nM, F3,118 = 27.19, P > 0.05), the “effect on UCN-induced CREB phosphorylation” value is “failed to block; also recorded: did not block”.
As to `CC(C)NCC(O)c1ccc(O)c(O)c1` (stereo not shown) [ISO, isoproterenol], the cAMP increase result in test [3] is on record as “significantly increased cAMP levels”.
With `COc1cccc(-c2cc(=O)c3ccccc3o2)c1N` [PD98059], the “effect on CRF-induced CREB phosphorylation” value in test [1] (PD98059 25 μM, CRF 40 nM, F3,86 = 30.25, P > 0.05) is “failed to affect; also recorded: unaffected”. In test [1] (PD98059 (25 μM), STR (70 nM), F3,122 = 51.88, P > 0.05, data not shown), the “effect on STR-induced CREB phosphorylation” value is on record as “unaffected”. The “effect on UCN-induced CREB phosphorylation” value in test [1] (PD98059 (25 μM), UCN 40 nM, F3,126 = 31.29, P < 0.001) is “attenuated; also recorded: attenuated, but did not block”.
Turning to `Nc1ncnc2c1ncn2C1CCCO1` (stereo not shown) [SQ22536], the “effect on CRF-induced CREB phosphorylation” value in test [1] (SQ22536 90 μM, CRF 40 nM, F3,83 = 22.02, P > 0.05) is given as “no effect; also recorded: failed to affect”. Besides, the “effect on UCN-induced CREB phosphorylation” value in test [1] (SQ22536 90 μM, UCN 40 nM, F3,113 = 25.34, P > 0.05) is “no effect; also recorded: failed to affect”.
As to `N#CC(=C(/N)Sc1ccccc1N)/C(C#N)=C(/N)Sc1ccccc1N` [U0126], in test [1] (U0126 10 μM, CRF 40 nM, F3,78 = 18.69, P > 0.05), the “effect on CRF-induced CREB phosphorylation” value is on record as “failed to affect; also recorded: unaffected”. The “effect on STR-induced CREB phosphorylation” value in test [1] (U0126 (10 μM), STR (70 nM), F3,126 = 43.18, P > 0.05, data not shown) is recorded as “unaffected”. In addition, the “effect on UCN-induced CREB phosphorylation” value in test [1] (U0126 (10 μM), UCN 40 nM, F3,128 = 28.68, P < 0.001) is listed as “attenuated; also recorded: attenuated, but did not block”.
As for `O=C1OC2(c3ccccc31)c1ccc(O)c(O)c1Oc1c2ccc(O)c1O` [gallein], the “effect on CRF-induced CREB phosphorylation” value in test [1] (gallein 75 μM, CRF 40 nM, 15 min, F3,117 = 30.17, P < 0.001) was “blocked”. Moreover, in test [1] (gallein 75 μM, UCN 40 nM, 15 min, F3,118 = 21.74, P < 0.001), the “effect on UCN-induced CREB phosphorylation” value is reported as “blocked”.
As for “PKI 14-22 amide myristoylated: second PKA inhibitor (Myristoyl-SGRTGRRNA-NH2; SMILES CCCCCCCCCCCCCC(=O)N[C@@H](CO)C(=O)NCC(=O)N[C@@H](CCCNC(=N)N)C(=O)N[C@H](C(=O)NCC(=O)N[C@@H](CCCNC(=N)N)C(=O)N[C@@H](CCCNC(=N)N)C(=O)N[C@@H](CC(N)=O)C(=O)N[C@@H](C)C(N)=O)[C@@H](C)O; UniProt P61925 14-22, looked up, fragment)”, the “effect on CRF-induced CREB phosphorylation” value in test [1] (PKI 14-22 amide myristoylated 1 μM, CRF 40 nM, F3,133 = 38.91, P > 0.05, data not shown) was “failed to block”. Further, the “effect on UCN-induced CREB phosphorylation” value in test [1] (PKI 14-22 amide myristoylated 1 μM, UCN 40 nM, F3,113 = 39.24, P > 0.05, data not shown) is on record as “failed to block”.
Regarding cholera toxin [CTX], in test [1], the “effect on CRF-induced CREB phosphorylation” value was “abolished; also recorded: blocked” and the “effect on UCN-induced CREB phosphorylation” value is “abolished; also recorded: blocked”.
As to “human/rat corticotropin releasing factor [CRF]”, the “cAMP activation, CRF compared with UCN” value in the test with CRFR1α is “induce cAMP activation equally”. In addition, in test [1], the “concentrations inducing pCREB signal statistically different from vehicle” value is ≥ 40 nM and the “τ of pCREB increase (time course)” value was ~ 10 min. For the same molecule, the pKi on CRFR1 [4] was 7.96 to 8.28. The “effect on hippocampal neuron excitability” value in the test with hippocampal neurons (ref Aldenhoff et al., 1983, Blank et al.) was “rapidly increases hippocampal neuron excitability”. The “effect on hippocampal LTP” value in the test on hippocampal neurons (ref Blank et al.) is “enhances hippocampal LTP”.
Regarding pertussis toxin [PTX], the “effect on UCN-induced CREB phosphorylation” value in test [1] (PTX 500 ng/mL, 18 hr pre-treatment, UCN 40 nM, F3,116 = 40.60, P > 0.05) was “did not affect”.
Turning to rat urocortin I [UCN], in the test with CRFR1α, the “cAMP activation, CRF compared with UCN” value is recorded as “induce cAMP activation equally”. In test [5], the “activation of MAPK signaling” value is on record as “activates MAPK signaling”. The “CRFR1-dependent G protein activation” value in the test on CRFR1 [6] is recorded as “CRFR1-dependent activation of Gαq”. In addition, in test [1], the “concentrations inducing pCREB signal statistically different from vehicle” value is given as ≥ 40 nM and the “τ of pCREB increase (time course)” value is ~ 7 min.
